Data from the Deep4Chem optical property database.
One block for each compound: values may come before it.

Assay: solvent given as SMILES

Structure (SMILES): Cc1ccc(C2=C3C=CC(/C=C/c4ccccc4)=[N+]3[B-](F)(F)n3c(/C=C/c4ccccc4)ccc32)cc1
- fluorescence lifetime (in C1CCCCC1): 4.37 ns
- fluorescence lifetime (in C1CCOC1): 4.09 ns
- fluorescence lifetime (in C1COCCO1): 4.31 ns
- fluorescence lifetime (in CCOC(C)=O): 4.77 ns
- fluorescence lifetime (in CO): 4.54 ns
- fluorescence lifetime (in Cc1ccccc1): 4.48 ns
- fluorescence lifetime (in ClC(Cl)Cl): 4.63 ns

Structure (SMILES): c1ccc(-c2cc(-c3nnc(-c4ccc(N5c6ccccc6Oc6ccccc65)cc4)o3)c(-c3ccccc3)c(-c3ccccc3)c2-c2ccccc2)cc1
- fluorescence lifetime (in c1ccc(-n2c(-c3c(-n4c5ccccc5c5ccccc54)cccc3-n3c4ccccc4c4ccccc43)nc3ccccc32)cc1): 4.1 ns

- fluorescence lifetime (in CC(C)O): 2.69 ns
- fluorescence lifetime (in CCCCCCCCO): 3.18 ns
- fluorescence lifetime (in CCCCCCO): 3.09 ns
- fluorescence lifetime (in CCCCO): 2.98 ns
- fluorescence lifetime (in CCCO): 2.79 ns
- fluorescence lifetime (in CCO): 2.45 ns
- fluorescence lifetime (in CO): 2.15 ns
- fluorescence lifetime (in O): 1.52 ns
- fluorescence lifetime (in [2H]O[2H]): 1.64 ns
Structure (SMILES): CCN(CC)c1ccc2c(c1)OC1=CC(N(CC)CC)C=CC1[C+]2c1ccccc1C(=O)O (stereo not drawn)

Structure (SMILES): CN(C)c1ccc2nc3c(cc2c1)c(-c1ccccc1)nn3-c1ccccc1
- fluorescence lifetime (in C1CCCCC1): 16.1 ns
- fluorescence lifetime (in C1CCOC1): 21 ns
- fluorescence lifetime (in CC#N): 24.5 ns
- fluorescence lifetime (in CC(C)=O): 23.4 ns
- fluorescence lifetime (in CCCCCl): 20.1 ns
- fluorescence lifetime (in CCCCOCCCC): 18.4 ns
- fluorescence lifetime (in CN(C)C=O): 22.3 ns

- fluorescence lifetime (in CCO): 1.66 ns
Structure (SMILES): CC(=O)N(Cc1ccccn1)c1c2ccccc2c2c3c(cccc13)C(=O)N(Cc1ccccn1)C2=O

Structure (SMILES): COC(=O)/C(C#N)=c1\s/c(=c2/s/c(=C(/C#N)C(=O)OC)c3cc(-c4ccc(C(F)(F)F)cc4)sc23)c2sc(-c3ccc(C(F)(F)F)cc3)cc12
- fluorescence lifetime (in Cc1ccccc1): 2.32 ns

- fluorescence lifetime (in CC#N): 2.85 ns
Structure (SMILES): N#C/C(=C\c1ccc(C#N)cc1)c1nc(-c2ccc(Cl)cc2)cs1

- fluorescence lifetime (in C1CCCCC1): 5.6 ns
Structure (SMILES): Nc1ccc2ccc3cccc4ccc1c2c34

Structure (SMILES): c1ccc([B-]2(c3ccccc3)Oc3ccc4ccccc4c3-c3c4ccccc4nc[n+]32)cc1
- fluorescence lifetime (in Cc1ccccc1): 9.59 ns

- fluorescence lifetime (in ClCCl): 2.5 ns
Structure (SMILES): N#Cc1ccc(C2=Cc3cc4ccccc4cc3P2(=O)c2ccccc2)cc1 (stereo not drawn)

- fluorescence lifetime (in C1CCOC1): 2.1 ns
Structure (SMILES): FC(F)(F)C(F)(F)C(F)(F)C1=NC2=C(Br)C=C3c4cc(Br)c5nc(C(F)(F)C(F)(F)C(F)(F)F)nc6c(Br)cc(c4c56)=C4C=C(Br)C(=N1)C2C34 (stereo not drawn)

- fluorescence lifetime (in CC#N): 2.1 ns
- fluorescence lifetime (in CC(C)O): 8.52 ns
- fluorescence lifetime (in CCCCO): 7.27 ns
- fluorescence lifetime (in CCCO): 6.93 ns
- fluorescence lifetime (in CCO): 5.98 ns
- fluorescence lifetime (in CO): 3.82 ns
Structure (SMILES): COc1cccc2c1C(=O)c1ccccc1-2

Structure (SMILES): COc1cc(N(c2ccccc2)c2ccc(C=C(C#N)C#N)c(OC)c2)ccc1C=C(C#N)C#N
- fluorescence lifetime (in C1COCCO1): 0.925 ns
- fluorescence lifetime (in CC#N): 0.026 ns
- fluorescence lifetime (in CC(C)=O): 0.049 ns
- fluorescence lifetime (in CCOC(C)=O): 0.22 ns
- fluorescence lifetime (in CN(C)C=O): 0.23 ns
- fluorescence lifetime (in CO): 0.11 ns
- fluorescence lifetime (in Cc1ccccc1): 0.051 ns
- fluorescence lifetime (in ClC(Cl)Cl): 0.23 ns
- fluorescence lifetime (in ClCCl): 0.15 ns

- fluorescence lifetime (in ClCCl): 1 ns
Structure (SMILES): COCCOCCOCCOCC(COCCOCCOCCOC)Oc1cc(/C=C/c2ccc(/C=C(\C#N)C(=O)c3ccccc3)cc2)c(OC(COCCOCCOCCOC)COCCOCCOCCOC)cc1/C=C/c1ccc(/C=C(\C#N)C(=O)c2ccccc2)cc1

- fluorescence lifetime (in C1CCOC1): 1.01 ns
Structure (SMILES): COc1cc2c(cc1-c1ccc(N(C)C)cc1)Cc1c3c(c4c(c1-2)-c1cc(OC)c(-c2ccc(N(C)C)cc2)cc1C4)C(=O)N(CCC(C)C)C3=O

Structure (SMILES): Cc1ccc2c(c1)C(c1ccccc1)(c1ccccc1)c1cc(C)ccc1N2c1cc(C(C)C)c(B2c3ccccc3Sc3ccccc32)c(C(C)C)c1
- fluorescence lifetime (in Cc1ccccc1): 47 ns
- fluorescence lifetime (in O=P(c1ccccc1)(c1ccccc1)c1ccc2oc3ccc(P(=O)(c4ccccc4)c4ccccc4)cc3c2c1): 21 ns

- fluorescence lifetime (in ClCCl): 1.22 ns
Structure (SMILES): CCCCCCOc1cc(/C=C/c2cc(OCCCCCC)c(/C=C/c3cc(OCCCCCC)c(C=C4C(=O)c5ccccc5C4=O)cc3OCCCCCC)cc2OCCCCCC)c(OCCCCCC)cc1C=C1C(=O)c2ccccc2C1=O

- fluorescence lifetime (in ClCCl): 1.27 ns
Structure (SMILES): CCCCCCCCOc1cc(/C=C/c2cc(OCCCCCCCC)c(/C=C/c3cc(OCCCCCCCC)c(/C=C/c4ccncc4)cc3OCCCCCCCC)cc2OCCCCCCCC)c(OCCCCCCCC)cc1/C=C/c1ccncc1

Structure (SMILES): CC(=O)Nc1ccc2c3c(cccc13)C(=O)c1ccccc1-2
- fluorescence lifetime (in CC#N): 10.3 ns
- fluorescence lifetime (in CC(C)=O): 9.7 ns
- fluorescence lifetime (in CC(C)O): 9.3 ns
- fluorescence lifetime (in CCCCOCCCC): 1.9 ns
- fluorescence lifetime (in CCOC(C)=O): 6.6 ns
- fluorescence lifetime (in CCOCC): 2.6 ns
- fluorescence lifetime (in CO): 8.3 ns
- fluorescence lifetime (in Cc1ccccc1): 2.8 ns
- fluorescence lifetime (in Clc1ccccc1): 5.9 ns
- fluorescence lifetime (in N#Cc1ccccc1): 9.8 ns
- fluorescence lifetime (in O=C1CCCCC1): 8.3 ns
